Measured values published in US20170106101A1, “METHODS INVOLVING MACROPHAGE TUMOR CELL FUSION HYBRIDS” (OREGON HEALTH & SCIENCE UNIVERSITY, priority 2015, published 2017).

B1: Csf1: ligand of colony stimulating factor 1 receptor, used as chemoattractant (protein, UniProt P07141 33-552, looked up)
Macrophage colony-stimulating …: KEVSEHCSHMIGNGHLKVLQQLIDSQMETSCQIAFEFVDQEQLDDPVCYLKKAFFLVQDIIDETMRFKDNTPNANATERLQELSNNLNSCFTKDYEEQNKACVRTFHETPLQLLEKIKNFFNETKNLLEKDWNIFTKNCNNSFAKCSSRDVVTKPDCNCLYPKATPSSDPASASPHQPPAPSMAPLAGLAWDDSQRTEGSSLLPSELPLRIEDPGSAKQRPPRSTCQTLESTEQPNHGDRLTEDSQPHPSAGGPVPGVEDILESSLGTNWVLEEASGEASEGFLTQEAKFSPSTPVGGSIQAETDRPRALSASPFPKSTEDQKPVDITDRPLTEVNPMRPIGQTQNNTPEKTDGTSTLREDHQEPGSPHIATPNPQRVSNSATPVAQLLLPKSHSWGIVLPLGELEGKRSTRDRRSPAELEGGSASEGAARPVARFNSIPLTDTGHVEQHEGSSDPQIPESVFHLLVPGIILVLLTVGGLLFYKWKWRSHRDPQTLDSSVGRPEDSSLTQDEDRQVELPV
B2: Hgf: Hepatic growth factor, cytokine tested for growth effect on MC38 and hybrid cells (protein, UniProt Q08048 33-495; Q08048 496-728, looked up)
Hepatocyte growth factor …: QKKRRNTLHEFKKSAKTTLTKEDPLLKIKTKKVNSADECANRCIRNRGFTFTCKAFVFDKSRKRCYWYPFNSMSSGVKKGFGHEFDLYENKDYIRNCIIGKGGSYKGTVSITKSGIKCQPWNSMIPHEHSFLPSSYRGKDLQENYCRNPRGEEGGPWCFTSNPEVRYEVCDIPQCSEVECMTCNGESYRGPMDHTESGKTCQRWDQQTPHRHKFLPERYPDKGFDDNYCRNPDGKPRPWCYTLDPDTPWEYCAIKTCAHSAVNETDVPMETTECIQGQGEGYRGTSNTIWNGIPCQRWDSQYPHKHDITPENFKCKDLRENYCRNPDGAESPWCFTTDPNIRVGYCSQIPKCDVSSGQDCYRGNGKNYMGNLSKTRSGLTCSMWDKNMEDLHRHIFWEPDASKLNKNYCRNPDDDAHGPWCYTGNPLIPWDYCPISRCEGDTTPTIVNLDHPVISCAKTKQLR
Hepatocyte growth factor beta …: VVNGIPTQTTVGWMVSLKYRNKHICGGSLIKESWVLTARQCFPARNKDLKDYEAWLGIHDVHERGEEKRKQILNISQLVYGPEGSDLVLLKLARPAILDNFVSTIDLPSYGCTIPEKTTCSIYGWGYTGLINADGLLRVAHLYIMGNEKCSQHHQGKVTLNESELCAGAEKIGSGPCEGDYGGPLICEQHKMRMVLGVIVPGRGCAIPNRPGIFVRVAYYAKWIHKVILTYKL

Assays:
Type in all cases: cell-based, mouse
MC38 cells = test: Growth responsiveness to cytokines and soluble factors (MTS, confluence, viability); conditions: increasing concentrations of cytokine
Protocol: (§1) In vitro-derived hybrid proliferation. For phenotypic profiling growth responsiveness to cytokines and soluble factors, 95 different cytokines or soluble signaling molecules were distributed at high, medium and low concentrations in 384 well plates, in 25 μl of RPMI (Life Technologies, NY) supplemented with 1% FBS; and 25 μl of a 1.2×10^4 cells/ml suspension of hybrid or MC-38 cells in DMEM+4% FBS was added to each well. 99 wells of each plate were left cytokine-free and no cells were added to two of these wells, which served to provide measurements of background signal. Plates were cultured in a humidified incubator for 72 hours, after which 5 ul of MTS reagent was added to each well. Two hours later, absorbance at 490 nm was read with a 384-well plate reader. For each plate, absorbance values for each cytokine-treated well were normalized to the mean absorbance of the cytokine-free wells on that plate, and expressed in terms of standard deviations from the cytokine-free mean. Three independent hybrid isolates and three MC38 replicates were analyzed. […] In these experiments, 2.5×10^4 hybrid or MC38 cells were plated in the presence of three different concentrations for each soluble factor, or in media alone (DMEM+2.5% FBS), in triplicate for each condition. Plates were imaged every two hours for 90 hours, and then cell viability was assessed.

[1] = test system: MC38-derived hybrid cells; test: as above; conditions: increasing concentrations of cytokine; MC38-derived hybrids
Protocol: as §1

[2] = test system: MC38-derived fusion hybrids; test: Transwell chemotaxis assay towards ligand; conditions: ligand 25 ng/ml
Protocol: (§2) Chemotaxis assay. Chemotaxis assays were performed using IncuCyte™ Chemotaxis Cell Migration Assay (Essen) with at least three technical replicates of triplicate samples. Briefly, 1000 cancer cells were plated in the top wells in DMEM+0.2% FBS after incubation in serum-free media for 20 h. Csf1 or Sdf1 ligand (25 ng/mL) was added to the bottom well and cells were incubated at 37° C. for at least 36 hours with live-imaging. The neutralizing antibodies to the Csf1R (eBioscience), Cxcr4 (Biolegend) and isotype control antibody were added to the top and bottom well (2.5 ng/μL). Migration was quantified by measuring phase contrast area of the top and bottom wells for each timepoint using IncuCyte ZOOM® software. Triplicates of each condition were performed, and the means and standard deviations were calculated. p<0.02 for hybrids treated with Csf1 or Sdf1 relative to hybrids without Csf1 or Sdf1 by unpaired t-test. Two independent hybrid isolates were analyzed. Technical octupulicates (MC38) or sextuplicates (B16F10) with biologic quadruplicates or triplicates were analyzed. For inhibitor studies technical duplicates with biologic triplicates were analyzed.

[3] = test system: unfused MC38 cancer cells; test: Transwell chemotaxis assay towards ligand; conditions: ligand 25 ng/ml
Protocol: as §2

[4] = test system: B16F10 cancer cell hybrids; test: Transwell chemotaxis assay towards ligand; conditions: ligand 25 ng/ml
Protocol: as §2

| Molecule | effect on MC38 proliferation / growth (MC38 cells) | effect on hybrid proliferation / growth [1] | migration of fusion hybrids towards ligand [2] | migration of unfused MC38 cells towards ligand [3] | migration of B16F10 hybrids towards ligand [4] |
| --- | --- | --- | --- | --- | --- |
| Tnf-α | profound inhibitory effect | resistant | – | – | – |
| Sdf1: strongly chemotactic lymphocyte cytokine, ligand of Cxcr4 | – | – | migrated towards | incapable of responding | – |
| B1 | – | – | migrated towards | incapable of responding | low response |
| B2 | moderate, dose-dependent growth-suppressing effect | – | – | – | – |
